Measured values published in article PMC4511006 (PLoS ONE, 2015).
Values joined by “and” are separate entries in the source; they are usually repeats but may differ in a detail not shown here. Equal values may be shown once. Ends that are not written are not given here.

How the values were obtained:
[1] = test system: classical pathway complement activity in factor B-depleted human serum; assay: Hemolysis assay using factor-B depleted serum and antibody-sensitized sheep erythrocytes; type: biochemical; details: 0.77mM peptide in factor B-depleted serum; triplicate, mean; standardized to water or DMSO
Description: (§1) Soluble peptides were dissolved in water whereas insoluble peptides were reconstituted in DMSO. Results were standardized to water or DMSO, as appropriate.

ficolin H (ficolin-3) = ficolin H (ficolin-3) (Homo sapiens, UniProt O75636); assay: ELISA, biotinylated PA binding to ficolin H; details: ficolin adsorbed at 10μg/mL, 0.4M NaCl in blocking buffer, compared with C1q
Sequence of ficolin H (ficolin-3) (O75636 24-299): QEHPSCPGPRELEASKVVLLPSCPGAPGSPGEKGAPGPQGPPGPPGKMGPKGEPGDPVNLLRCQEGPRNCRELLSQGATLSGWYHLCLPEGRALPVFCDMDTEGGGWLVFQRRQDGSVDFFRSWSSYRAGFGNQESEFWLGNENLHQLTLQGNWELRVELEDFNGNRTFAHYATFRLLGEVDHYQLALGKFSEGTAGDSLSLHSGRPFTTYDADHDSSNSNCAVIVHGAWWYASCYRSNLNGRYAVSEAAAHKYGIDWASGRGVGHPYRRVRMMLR
Description: (§2) Wild-type recombinant ficolins L (ficolin-2), H (ficolin-3), M (ficolin-1) were adsorbed to a microtiter plate at 10μg/mL. C1q (25nM) and BSA (30μg/mL) were immobilized as controls. Plates were blocked with 3% BSA/PBST for 2h. Biotinylated PA was added at various concentrations in blocking buffer containing 0.4M NaCl (to reduce nonspecific binding) and incubated for 1h at room temperature. Following washing, wells were probed neutravidin-HRP (1:4000) in blocking buffer for 1h and developed as described above. Absorbance values from wells not incubated with biotinylated PA were subtracted as background.

C1q = target: T1, C1q (Homo sapiens, UniProt P02745+P02746+P02747); assay: Cross-linking of biotinylated PA to C1q with BS3, SDS-PAGE/western blot; type: binding; details: C1q:biotinylated PA 1:25, BS3 20μM
T1 construct: Purified C1q (1μg) was added to wells
T1 sequence (P02745 23-245): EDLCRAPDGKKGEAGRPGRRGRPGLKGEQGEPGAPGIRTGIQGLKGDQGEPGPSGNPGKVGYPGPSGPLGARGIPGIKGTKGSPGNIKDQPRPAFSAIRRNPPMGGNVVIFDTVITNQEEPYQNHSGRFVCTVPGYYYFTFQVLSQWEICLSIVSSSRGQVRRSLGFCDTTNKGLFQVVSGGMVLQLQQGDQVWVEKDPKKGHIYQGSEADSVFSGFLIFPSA
T1 sequence (P02746 28-253): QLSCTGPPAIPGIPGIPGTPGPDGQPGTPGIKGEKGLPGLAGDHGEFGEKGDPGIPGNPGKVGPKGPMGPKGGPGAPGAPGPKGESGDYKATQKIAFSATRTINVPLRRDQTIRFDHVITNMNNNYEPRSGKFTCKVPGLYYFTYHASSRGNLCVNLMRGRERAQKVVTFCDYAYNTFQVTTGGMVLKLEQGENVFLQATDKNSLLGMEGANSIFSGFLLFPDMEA
T1 sequence (P02747 29-245): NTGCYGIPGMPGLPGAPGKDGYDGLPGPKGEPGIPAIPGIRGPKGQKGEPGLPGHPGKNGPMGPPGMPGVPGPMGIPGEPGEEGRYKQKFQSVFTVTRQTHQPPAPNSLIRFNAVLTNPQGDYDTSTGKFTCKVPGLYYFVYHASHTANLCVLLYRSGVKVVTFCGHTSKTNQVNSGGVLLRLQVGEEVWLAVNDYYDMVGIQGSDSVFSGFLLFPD
Description: Purified C1q and biotinylated PA, at a ratio of 1:25, were incubated in conjugation buffer (0.1M Na2HPO4, 0.15M NaCl, pH 8.0) at room temperature for 2.5h. The crosslinker BS^3 (Bis(sulfosuccinimidlyl) suberate, Pierce) was added to a final concentration of 20μM and the mixture was incubated for 30 min. The reaction was quenched with 1M Tris-HCl (pH 7.5) to a final concentration of […] for 15 min. Reactions were analyzed via SDS-PAGE (NU-PAGE Bis/Tris 4–12% gradient gel) and western blot using a 1:1500 dilution of streptavidin IR 680 (LiCor) for 1h, 1:2000 dilution of goat anti-C1q IgG (CompTech) for 1h and 1:10,000 dilution of donkey anti-goat IgG IR 800 (Licor) for 1h. Gels were analyzed on an Odyssey Infrared Imaging System (Licor) and identical gels were visualized with bio-safe Coomassie stain (Bio-Rad) to confirm total protein content.

ficolin M (ficolin-1) = ficolin M (ficolin-1) (Homo sapiens, UniProt O00602); assay: ELISA, biotinylated PA binding to ficolin M; details: ficolin adsorbed at 10μg/mL, 0.4M NaCl in blocking buffer, compared with C1q
Sequence of ficolin M (ficolin-1) (O00602 30-326): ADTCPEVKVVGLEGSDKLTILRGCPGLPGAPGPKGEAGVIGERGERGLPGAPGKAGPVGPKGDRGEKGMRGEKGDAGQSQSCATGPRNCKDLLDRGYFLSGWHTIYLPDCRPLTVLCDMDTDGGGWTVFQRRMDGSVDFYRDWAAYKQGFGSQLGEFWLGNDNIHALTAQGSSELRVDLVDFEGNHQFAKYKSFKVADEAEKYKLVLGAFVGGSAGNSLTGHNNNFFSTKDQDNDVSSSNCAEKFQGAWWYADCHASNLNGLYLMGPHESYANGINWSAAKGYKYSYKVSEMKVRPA
Description: as §2

ficolin L (ficolin-2) = ficolin L (ficolin-2) (Homo sapiens, UniProt Q15485); assay: ELISA, biotinylated PA binding to ficolin L; details: ficolin adsorbed at 10μg/mL, 0.4M NaCl in blocking buffer, compared with C1q
Sequence of ficolin L (ficolin-2) (Q15485 26-313): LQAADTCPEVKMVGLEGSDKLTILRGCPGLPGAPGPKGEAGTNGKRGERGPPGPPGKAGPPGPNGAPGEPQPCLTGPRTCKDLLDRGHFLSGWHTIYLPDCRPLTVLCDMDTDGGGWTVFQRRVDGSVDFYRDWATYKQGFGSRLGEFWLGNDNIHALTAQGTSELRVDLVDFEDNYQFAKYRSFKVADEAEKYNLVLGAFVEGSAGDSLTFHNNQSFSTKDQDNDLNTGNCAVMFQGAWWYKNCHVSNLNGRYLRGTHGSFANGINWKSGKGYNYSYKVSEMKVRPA
Description: as §2

intact C1q = target: intact C1q; design: method as in PMID 22906481; details: SPR; cited from earlier work
Solubility in water = type: physicochemical
Description: as §1

[2] = target: T2, C1 complex (C1s bound to C1q) (Homo sapiens, UniProt P02745+P02746+P02747); assay: Displacement (competition ELISA) assay of C1s from C1; type: binding; details: C1 0.05μg; CP from 0.145μM, PA from 1.45μM (10-fold molar excess)
T2 construct: partially purified C1 complex was added to wells at a constant amount
T2 sequence (P02745 23-245): as the sequence (P02745 23-245) above
T2 sequence (P02746 28-253): as the sequence (P02746 28-253) above
T2 sequence (P02747 29-245): as the sequence (P02747 29-245) above
Description: This was performed similarly to the competitive binding assay described by Hair et al., 2010 [8], with the following differences. Plates were coated with monoclonal antibody to C1q (Quidel) at 1:1000 overnight. In blocking buffer containing 2mM CaC1_2, partially purified C1 complex was added to wells at a constant amount (0.05μg) with decreasing amounts of either CP or PA, starting with concentrations for CP at 0.145μM and 1.45μM for PA. Detection of C1q and C1s was confirmed as described by Hair et al., 2010 [8].

complement activation = details: Wistar rats, delivered IV; cited from earlier work
From the text: However, a serious limitation to these peptide analogs was their lack of solubility in aqueous solution. Given the aqueous solubility of PA-dPEG24, we set out to determine their efficacy in vivo.

Row | Molecule | Hemolysis (%) [1] | further results
1 | IALILEPICCQERAR [PA-A15R] | 44.24% | 
2 | IALILEPICCQRRAA [PA-E12R] | 95.83% | 
3 | EALILEPICCQERAA [PA-I1E, glutamic acid substitution peptide of PA] | 89.27% | 
4 | IALILEPICCQERAE [PA-A15E] | 93.13% | 
5 | IALILEPICCQEEAA [PA-R13E] | 101.99% | 
6 | IALILEPICCQEREA [PA-A14E] | 98.09% | 
7 | IAEILEPICCQERAA [PA-L3E, glutamic acid substitution peptide of PA] | 100.27% | 
8 | IALILRPICCQERAA [PA-E6R, arginine substitution peptide of PA] | 87.59% | 
9 | IRLILEPICCQERAA [PA-A2R, arginine substitution peptide of PA] | 87.28% | 
10 | IALILEPICCQERRA [PA-A14R] | 88.65% | 
11 | IALIREPICCQERAA [PA-L5R, arginine substitution peptide of PA] | 93.40% | 
12 | biotinylated PA: C-terminally biotinylated PA peptide (IALILEPICCQERAA-biotin; cysteine pairing not given here) |  | binding to ficolin H (ficolin H (ficolin-3)): bound PA to the same degree as C1q; binding to C1q chains after cross-linking (C1q): can bind monomeric chains of C1q along with the dimers A-B and C-C; binding to ficolin M (ficolin M (ficolin-1)): bound PA to the same degree as C1q; binding to ficolin L (ficolin L (ficolin-2)): bound PA to the same degree as C1q
13 | IARILEPICCQERAA [PA-L3R, arginine substitution peptide of PA] | 80.45% | 
14 | IELILEPICCQERAA [PA-A2E, glutamic acid substitution peptide of PA] | 92.24% | 
15 | RALILEPICCQERAA [PA-I1R, arginine substitution peptide of PA] | 91.93% | 
16 | IALILEPECCQERAA [PA-I8E, glutamic acid substitution peptide of PA] | 95.74% | 
17 | IALIEEPICCQERAA [PA-L5E, glutamic acid substitution peptide of PA] | 94.33% | 
18 | IALILEEICCQERAA [PA-P7E, glutamic acid substitution peptide of PA] | 96.10% | 
19 | IALILEPICCRERAA [PA-Q11R] | 90.87% | 
20 | IALILEPICCEERAA [PA-Q11E] | 65.60% | 
21 | IALELEPICCQERAA [PA-I4E, glutamic acid substitution peptide of PA] | 92.07% | 
22 | CC[C@H](C)[C@H](N)C(=O)N[C@@H](C)C(=O)N[C@@H](CC(C)C)C(=O)N[C@H](C(=O)N[C@@H](CC(C)C)C(=O)N[C@@H](CCC(=O)O)C(=O)N1CCC[C@H]1C(=O)N[C@H](C(=O)N[C@@H](CS)C(=O)N[C@@H](CS)C(=O)N[C@@H](CCC(N)=O)C(=O)N[C@@H](CCC(=O)O)C(=O)N[C@@H](CCCNC(=N)N)C(=O)N[C@@H](C)C(=O)N[C@@H](C)C(=O)O)[C@@H](C)CC)[C@@H](C)CC [PA] | 39.49% | Kd (intact C1q): 33.3 nM and 33 nM; solubility in water / aqueous solutions (Solubility in water): lack of solubility in aqueous solutions; displacement of C1s from C1q [2]: did not demonstrate competitive displacement of C1s from C1q; inhibition of complement activation in vivo (complement activation): able to inhibit complement activation in Wistar rats
23 | IALRLEPICCQERAA [PA-I4R, arginine substitution peptide of PA] | 43.71% | 
24 | IALILEPRCCQERAA [PA-I8R, arginine substitution peptide of PA] | 62.32% | 
25 | IALILERICCQERAA [PA-P7R, arginine substitution peptide of PA] | 89.85% | 
